Consider four compounds from paper PMC3706558 (Biochemistry, 2013).

Series [1] has as its target T1, Mtb ICDH-1 (Mycobacterium tuberculosis, UniProt P9WKL1). Description: NADPH formation at […] nm, dead-end inhibition. It is filed as biochemical.
Series [2] addresses T1, Mtb ICDH-1. Description: biochemical.
Series [3] concerns NC(=O)c1ccc[n+]([C@@H]2O[C@H](COP(=O)(O)OP(=O)(O)OC[C@H]3O[C@@H](n4cnc5c(N)ncnc54)[C@H](OP(=O)(O)O)[C@@H]3O)[C@@H](O)[C@H]2O)c1. Description: purified protein. As to conditions: pH 7.5.

T1 sequence (P9WKL1 whole entry): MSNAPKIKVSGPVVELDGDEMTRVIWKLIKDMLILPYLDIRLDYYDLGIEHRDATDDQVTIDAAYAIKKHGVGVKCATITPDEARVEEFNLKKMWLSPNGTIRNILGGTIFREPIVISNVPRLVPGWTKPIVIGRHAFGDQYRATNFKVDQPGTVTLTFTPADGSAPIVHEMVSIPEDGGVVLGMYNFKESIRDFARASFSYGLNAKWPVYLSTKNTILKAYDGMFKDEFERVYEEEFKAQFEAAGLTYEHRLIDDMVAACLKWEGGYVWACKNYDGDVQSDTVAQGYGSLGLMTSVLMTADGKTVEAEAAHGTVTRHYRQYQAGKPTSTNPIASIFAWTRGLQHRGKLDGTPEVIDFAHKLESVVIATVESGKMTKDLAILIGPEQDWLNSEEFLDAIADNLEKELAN

Take `O=C(O)C[C@H](O)C(=O)O` [malate]: the affinity in series [1], expressed as Ki, was 80 ± 15 mM.

Take `O=C(O)CCC(=O)C(=O)O` [αKG]: the affinity in series [2], expressed as Ki, was 22 ± 6 mM.

For `NC(=O)C1=CN([C@@H]2O[C@H](COP(=O)(O)OP(=O)(O)OC[C@H]3O[C@@H](n4cnc5c(N)ncnc54)[C@H](OP(=O)(O)O)[C@@H]3O)[C@@H](O)[C@H]2O)C=CC1` [NADPH], the inhibition constant (Ki) (in general, the dissociation constant of the complex between target and ligand, obtained from inhibition or displacement) in series [2] stood at 0.006 ± 0.002 mM.

“Mtb ICDH-1 (Mycobacterium tuberculosis H37Rv)”: the Km – broadly, the concentration of substrate that gives half-maximal velocity – in series [3] turned out to be 15 ± 3 µM.
